Laboratory results taken from US9187435B2, “Bridged Spiro[2.4]heptane ester derivatives” (Actelion Pharmaceuticals Ltd., priority 2010, dated 2015).
Structures can show the parent of a compound that is named as a salt.

biological target: T1, human ALX receptor (Homo sapiens, UniProt P25090); test: Intracellular calcium measurements (FLIPR) in HEK293-hALXR-Gα16 cells, agonistic activity; type: cell-based; conditions: values normalized to WKYMVm 10 nM
T1 construct: expressed in transfected cells; host or cells: HEK293 (HEK293-hALXR-Gα16)
T1 sequence (P25090 1-351): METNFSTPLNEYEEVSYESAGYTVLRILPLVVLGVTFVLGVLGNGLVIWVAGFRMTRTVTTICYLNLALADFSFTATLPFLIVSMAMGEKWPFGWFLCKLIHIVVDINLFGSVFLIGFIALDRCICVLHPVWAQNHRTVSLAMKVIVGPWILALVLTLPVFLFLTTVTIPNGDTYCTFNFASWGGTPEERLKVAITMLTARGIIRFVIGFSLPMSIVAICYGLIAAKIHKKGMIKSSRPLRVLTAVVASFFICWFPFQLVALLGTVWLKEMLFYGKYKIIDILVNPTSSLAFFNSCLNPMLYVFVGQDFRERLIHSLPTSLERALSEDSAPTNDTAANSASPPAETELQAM
Description: The ALX receptor and FPRL2 agonistic activities of the compounds of formula (I) are determined in accordance with the following experimental method.
Intracellular Calcium Measurements:
Cells expressing recombinant human ALX receptor and the G-protein Gα16 (HEK293-hALXR-Gα16) were grown to 80% confluency in Growing Medium (GM). Cells were detached from culture dishes with a cell dissociation buffer (Invitrogen, 13151-014), and collected by centrifugation at 1,000 rpm at rt for 5 min in Assay Buffer (AB) (equal parts of Hank's BSS (Gibco, 14065-049) and DMEM without Phenol Red (Gibco, 11880-028)). After 60 min incubation at 37° C. under 5% CO2 in AB supplemented with 1 μM Fluo-4 (AM) (Invitrogen, F14202), and 20 mM HEPES (Gibco, 15630-056), the cells were washed and resuspended in AB. They were then seeded onto 384-well FLIPR assay plates (Greiner, 781091) at 50,000 cells in 70 μl per well and sedimented by centrifugation at 1,000 rpm for 1 min. Stock solutions of test compounds were made up at a concentration of 10 mM in DMSO, and serially diluted in AB to concentrations required for activation dose response curves. WKYMVm (Phoenix Peptides) was used as a reference agonist. FLIPR384 or FLIPR Tetra instruments (Molecular Devices) were operated according to the manufacturer's standard instructions, adding 4 μl of test compound dissolved at 10 mM in DMSO and diluted prior to the experiment in assay buffer to obtain the desired final concentration. Changes in fluorescence were monitored before and after the addition of test compounds at lex=488 nm and lem=540 nm. Emission peak values above base level after compounds addition were exported after base line subtraction. Values were normalized to high-level control (WKYMVm compound, 10 nM final concentration) after subtraction of the base line value (AB addition).

| SMILES | EC50 [nM] |
| --- | --- |
| O=C(OC1CCNCC1)[C@H]1[C@H](C(=O)Nc2ccc(Br)nc2)[C@@H]2CC[C@H]1C21CC1 [Example 2, (1S,2R,3R,4R)-[Piperidin-4-yl 2-((6-bromopyridin-3-yl)carbamoyl)spiro[bicyclo[2.2.1]heptane-7,1′-cyclopropane]-3-carboxylate]] | 15.1 |
| Cc1cc(CNC(=O)[C@H]2[C@H](C(=O)OCC3CCNCC3)[C@H]3CC[C@@H]2C32CC2)no1 [Example 3, (1S,2R,3R,4R)-[Piperidin-4-ylmethyl 2-(((5-methylisoxazol-3-yl)methyl)carbamoyl)spiro[bicyclo[2.2.1]heptane-7,1′-cyclopropane]-3-carboxylate]hydrochloride] | 22.7 |
| O=C(OCC1CCNCC1)[C@H]1[C@H](C(=O)NCc2ccc(Br)cc2F)[C@@H]2CC[C@H]1C21CC1 [Example 4, (1S,2R,3R,4R)-[Piperidin-4-ylmethyl 2-((4-bromo-2-fluorobenzyl)carbamoyl)spiro[bicyclo[2.2.1]heptane-7,1′-cyclopropane]-3-carboxylate]hydrochloride] | 52.1 |
| CN1CCC(OC(=O)[C@H]2[C@H](C(=O)Nc3ccc(Br)nc3)[C@@H]3CC[C@H]2C32CC2)CC1 [Example 6, (1S,2R,3R,4R)-[1-Methylpiperidin-4-yl 2-((6-bromopyridin-3-yl)carbamoyl)spiro[bicyclo[2.2.1]heptane-7,1′-cyclopropane]-3-carboxylate]] | 257 |
| COCCOC(=O)[C@H]1[C@H](C(=O)Nc2ccc(Br)nc2)[C@@H]2CC[C@H]1C21CC1 [Example 7, (1S,2R,3R,4R)-[2-Methoxyethyl 2-((6-bromopyridin-3-yl)carbamoyl)spiro[bicyclo[2.2.1]heptane-7,1′-cyclopropane]-3-carboxylate]] | 303 |
| CN1C(C)(C)CC(OC(=O)[C@H]2[C@H](C(=O)Nc3ccc(Br)nc3)[C@@H]3CC[C@H]2C32CC2)CC1(C)C [Example 8, (1S,2R,3R,4R)-[1,2,2,6,6-Pentamethylpiperidin-4-yl 2-((6-bromopyridin-3-yl)carbamoyl)spiro[bicyclo[2.2.1]heptane-7,1′-cyclopropane]-3-carboxylate]] | 753 |
| O=C(OC1CCCNC1)[C@H]1[C@H](C(=O)Nc2ccc(Br)nc2)[C@@H]2CC[C@H]1C21CC1 (stereo partly drawn) [Example 9, (1S,2R,3R,4R)-[Piperidin-3-yl 2-((6-bromopyridin-3-yl)carbamoyl)spiro[bicyclo[2.2.1]heptane-7,1′-cyclopropane]-3-carboxylate]hydrochloride] | 2.5 |
| O=C(OCCC1CCCNC1)[C@H]1[C@H](C(=O)Nc2ccc(Br)nc2)[C@@H]2CC[C@H]1C21CC1 (stereo partly drawn) [Example 10, (1S,2R,3R,4R)-[2-(Piperidin-3-yl)ethyl 2-((6-bromopyridin-3-yl)carbamoyl)spiro[bicyclo[2.2.1]heptane-7,1′-cyclopropane]-3-carboxylate]hydrochloride] | 3.1 |
| O=C(OCC[C@@H]1CCCCN1)[C@H]1[C@H](C(=O)Nc2ccc(Br)nc2)[C@@H]2CC[C@H]1C21CC1 [Example 11, (1S,2R,3R,4R)-[(S)-2-(Piperidin-2-yl)ethyl 2-((6-bromopyridin-3-yl)carbamoyl)spiro[bicyclo[2.2.1]heptane-7,1′-cyclopropane]-3-carboxylate]hydrochloride] | 8.8 |
| O=C(OCC1CCCNC1)[C@H]1[C@H](C(=O)Nc2ccc(Br)nc2)[C@@H]2CC[C@H]1C21CC1 (stereo partly drawn) [Example 12, (1S,2R,3R,4R)-[Piperidin-3-ylmethyl 2-((6-bromopyridin-3-yl)carbamoyl)spiro[bicyclo[2.2.1]heptane-7,1′-cyclopropane]-3-carboxylate]hydrochloride] | 15.5 |
| O=C(O[C@@H]1CCNC1)[C@H]1[C@H](C(=O)Nc2ccc(Br)nc2)[C@@H]2CC[C@H]1C21CC1 [Example 13, (1S,2R,3R,4R)-[(R)-Pyrrolidin-3-yl 2-((6-bromopyridin-3-yl)carbamoyl)spiro[bicyclo[2.2.1]heptane-7,1′-cyclopropane]-3-carboxylate]hydrochloride] | 17.9 |
| CN1CCC(OC(=O)[C@H]2[C@H](C(=O)Nc3ccc(Br)nc3)[C@@H]3CC[C@H]2C32CC2)C1 (stereo partly drawn) [Example 14, (1S,2R,3R,4R)-[1-Methylpyrrolidin-3-yl 2-((6-bromopyridin-3-yl)carbamoyl)spiro[bicyclo[2.2.1]heptane-7,1′-cyclopropane]-3-carboxylate]] | 25.8 |
| Cc1cc(CNC(=O)[C@H]2[C@H](C(=O)OC3CCN(C)C3)[C@H]3CC[C@@H]2C32CC2)no1 (stereo partly drawn) [Example 15, (1S,2R,3R,4R)-[1-Methylpyrrolidin-3-yl 2-(((5-methylisoxazol-3-yl)methyl)carbamoyl)spiro[bicyclo[2.2.1]heptane-7,1′-cyclopropane]-3-carboxylate]] | 34.6 |
| Cc1cc(CNC(=O)[C@H]2[C@H](C(=O)OC3CCCNC3)[C@H]3CC[C@@H]2C32CC2)no1 (stereo partly drawn) [Example 16, (1S,2R,3R,4R)-[Piperidin-3-yl 2-(((5-methylisoxazol-3-yl)methyl)carbamoyl)spiro[bicyclo[2.2.1]heptane-7,1′-cyclopropane]-3-carboxylate]hydrochloride] | 53.7 |
| Cc1cc(CNC(=O)[C@H]2[C@H](C(=O)OCCC3CCCNC3)[C@H]3CC[C@@H]2C32CC2)no1 (stereo partly drawn) [Example 17, (1S,2R,3R,4R)-[2-(Piperidin-3-yl)ethyl 2-(((5-methylisoxazol-3-yl)methyl)carbamoyl)spiro[bicyclo[2.2.1]heptane-7,1′-cyclopropane]-3-carboxylate]hydrochloride] | 79.4 |
| Cc1cc(CNC(=O)[C@H]2[C@H](C(=O)OCC3CCCNC3)[C@H]3CC[C@@H]2C32CC2)no1 (stereo partly drawn) [Example 18, (1S,2R,3R,4R)-[Piperidin-3-ylmethyl 2-(((5-methylisoxazol-3-yl)methyl)carbamoyl)spiro[bicyclo[2.2.1]heptane-7,1′-cyclopropane]-3-carboxylate]hydrochloride] | 87.7 |
| Cc1cc(CNC(=O)[C@H]2[C@H](C(=O)O[C@@H]3CCNC3)[C@H]3CC[C@@H]2C32CC2)no1 [Example 19, (1S,2R,3R,4R)-[(R)-Pyrrolidin-3-yl 2-(((5-methylisoxazol-3-yl)methyl)carbamoyl)spiro[bicyclo[2.2.1]heptane-7,1′-cyclopropane]-3-carboxylate]hydrochloride] | 105 |
| Cc1cc(CNC(=O)[C@H]2[C@H](C(=O)OCC[C@@H]3CCCCN3)[C@H]3CC[C@@H]2C32CC2)no1 [Example 20, (1S,2R,3R,4R)-[(S)-2-(Piperidin-2-yl)ethyl 2-(((5-methylisoxazol-3-yl)methyl)carbamoyl)spiro[bicyclo[2.2.1]heptane-7,1′-cyclopropane]-3-carboxylate]hydrochloride] | 118 |
| CN(C)CCCOC(=O)[C@H]1[C@H](C(=O)Nc2ccc(Br)nc2)[C@@H]2CC[C@H]1C21CC1 [Example 21, (1S,2R,3R,4R)-[1-Dimethylaminoprop-3-yl 2-((6-bromopyridin-3-yl)carbamoyl)spiro[bicyclo[2.2.1]heptane-7,1′-cyclopropane]-3-carboxylate]] | 146 |
| CN1CCCCC1COC(=O)[C@H]1[C@H](C(=O)Nc2ccc(Br)nc2)[C@@H]2CC[C@H]1C21CC1 (stereo partly drawn) [Example 22, (1S,2R,3R,4R)-[1-Methyl-piperidin-2-ylmethyl 2-((6-bromopyridin-3-yl)carbamoyl)spiro[bicyclo[2.2.1]heptane-7,1′-cyclopropane]-3-carboxylate]] | 217 |
